Assay: recombinant UMI read abundance after kanamycin selection (control-corrected) (log10(CPM+1)); higher = more efficient recombination; extreme values may be limits of the assay; sequences stand for … in AGTGCAGAGAAAATCGGCCAGTTTTCTCTGCCTGCAGTCCGCATGCCGTGGGACCCCTTGGGTTCTAACCTGTTGCCTAGATTTATGCAGCGGACTGCCTTTCTCCCAAAGTGATAAACCGG…AGGTTGGTTTCACT; site = the 11-nt donor
How it was run: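 In a pooled Escherichia coli screen for the IS621 bridge recombinase, donor and donor-binding-loop pairs were each placed with a 12-nt UMI on a plasmid bearing a promoterless kanamycin gene. This library was co-electroporated with a target plasmid encoding a fixed target and T7-inducible recombinase, and cells were plated either on IPTG (0.07 mM) plus kanamycin or without selection, in two replicates each. Recombinant UMIs were PCR-amplified across the donor–target junction and sequenced, and counts were converted to CPM, averaged over replicates, scaled by control-derived factors and reported as log10(CPM+1).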
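Note: IS621 bridge recombinase in Escherichia coli cells against a fixed T5 target plasmid.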

Sequence	recombinant UMI read abundance (log10)
GATAATCCATGGACCGGTTTTCCCGGTAATCCGTATTTGCT (site GATTATCCTAG)	0
GATACGTCATGGACCGGTTTTCCCGGTAATCCGTATTTGGT (site GATACGTCTAC)	1.36
GATAGAACATGGACCGGTTTTCCCGGTAATCCGTATTTGGC (site GATAGAACTGC)	1.7
GATAGAACATGGACCGGTTTTCCCGGTAATCCGTATTTGGC (site GCTAGAACTGC)	0
GATAGAACATGGACCGGTTTTCCCGGTAATCCGTATTTGGC (site GGTAGAACTGC)	0
GATAGAACATGGACCGGTTTTCCCGGTAATCCGTATTTGGC (site GTTAGAACTGC)	0
GATCAGACATGGACCGGTTTTCCCGGTAATCCGTATTTGAA (site GATCAGACTTT)	0.431
GATCAGCCATGGACCGGTTTTCCCGGTAATCCGTATTTGCC (site GATCAGCCTGG)	0.649
GATCAGCCATGGACCGGTTTTCCCGGTAATCCGTATTTGGT (site GATCAGCCTAC)	0.00497
GATCGGACATGGACCGGTTTTCCCGGTAATCCGTATTTGAC (site GATAGGACTGT)	0
GATCGGACATGGACCGGTTTTCCCGGTAATCCGTATTTGAC (site GATCGGACTGT)	1.11
GATCGGACATGGACCGGTTTTCCCGGTAATCCGTATTTGAC (site GATGGGACTGT)	0
GATCGGACATGGACCGGTTTTCCCGGTAATCCGTATTTGAC (site GATTGGACTGT)	0
GATCTCACATGGACCGGTTTTCCCGGTAATCCGTATTTGAT (site GAACTCACTAT)	0.831
GATCTCACATGGACCGGTTTTCCCGGTAATCCGTATTTGAT (site GACCTCACTAT)	0.0659
GATCTCACATGGACCGGTTTTCCCGGTAATCCGTATTTGAT (site GAGCTCACTAT)	0.00697
GATCTCACATGGACCGGTTTTCCCGGTAATCCGTATTTGAT (site GATCTCACTAT)	0.574
GATCTTCCATGGACCGGTTTTCCCGGTAATCCGTATTTGAT (site GATCTTCCTAT)	0.048
GATGCAACATGGACCGGTTTTCCCGGTAATCCGTATTTGAT (site GATGCAACTAT)	0.357
GATGTAGCATGGACCGGTTTTCCCGGTAATCCGTATTTGCG (site GATGTAGCTCG)	1.72
GATGTGTCATGGACCGGTTTTCCCGGTAATCCGTATTTGAA (site GATGTGTCTTT)	2.22
GATGTTGCATGGACCGGTTTTCCCGGTAATCCGTATTTGCT (site GATGTTGCTAG)	2.51
GATTAAACATGGACCGGTTTTCCCGGTAATCCGTATTTGCG (site GATTAAACTCG)	0.992
GATTAGACATGGACCGGTTTTCCCGGTAATCCGTATTTGAC (site GATTAGACTGT)	2.76
GATTAGACATGGACCGGTTTTCCCGGTAATCCGTATTTGAC (site GATTCGACTGT)	0

Sequence	recombinant UMI read abundance (log10)
GATTAGACATGGACCGGTTTTCCCGGTAATCCGTATTTGAC (site GATTGGACTGT)	0
GATTAGACATGGACCGGTTTTCCCGGTAATCCGTATTTGAC (site GATTTGACTGT)	0
GATTATGCATGGACCGGTTTTCCCGGTAATCCGTATTTGGA (site AATTATGCTTC)	0.871
GATTATGCATGGACCGGTTTTCCCGGTAATCCGTATTTGGA (site CATTATGCTTC)	1.13
GATTATGCATGGACCGGTTTTCCCGGTAATCCGTATTTGGA (site GATTATGCTTC)	0.861
GATTATGCATGGACCGGTTTTCCCGGTAATCCGTATTTGGA (site TATTATGCTTC)	0.882
GATTCATCATGGACCGGTTTTCCCGGTAATCCGTATTTGAG (site GATTCATCTCT)	1.31
GATTGGCCATGGACCGGTTTTCCCGGTAATCCGTATTTGCG (site GATTGGCCTCG)	0.115
GATTGTACATGGACCGGTTTTCCCGGTAATCCGTATTTGAC (site GATTGAACTGT)	0
GATTGTACATGGACCGGTTTTCCCGGTAATCCGTATTTGAC (site GATTGCACTGT)	0
GATTGTACATGGACCGGTTTTCCCGGTAATCCGTATTTGAC (site GATTGGACTGT)	0
GATTGTACATGGACCGGTTTTCCCGGTAATCCGTATTTGAC (site GATTGTACTGT)	0.604
GATTGTCCATGGACCGGTTTTCCCGGTAATCCGTATTTGCT (site GATTATCCTAG)	0
GATTGTCCATGGACCGGTTTTCCCGGTAATCCGTATTTGCT (site GATTCTCCTAG)	0
GATTGTCCATGGACCGGTTTTCCCGGTAATCCGTATTTGCT (site GATTGTCCTAG)	0
GATTGTCCATGGACCGGTTTTCCCGGTAATCCGTATTTGCT (site GATTTTCCTAG)	0
GATTTCGCATGGACCGGTTTTCCCGGTAATCCGTATTTGTC (site GATTTCGCTGA)	1.51
GATTTGACATGGACCGGTTTTCCCGGTAATCCGTATTTGAC (site GATTAGACTGT)	0
GATTTGACATGGACCGGTTTTCCCGGTAATCCGTATTTGAC (site GATTCGACTGT)	0
GATTTGACATGGACCGGTTTTCCCGGTAATCCGTATTTGAC (site GATTGGACTGT)	0
GATTTGACATGGACCGGTTTTCCCGGTAATCCGTATTTGAC (site GATTTGACTGT)	0.525
GCAAAAACATGGACCGGTTTTCCCGGTAATCCGTATTTGCT (site GCAAAAACTAG)	0.226
GCAAAAACATGGACCGGTTTTCCCGGTAATCCGTATTTGCT (site GCCAAAACTAG)	0
GCAAAAACATGGACCGGTTTTCCCGGTAATCCGTATTTGCT (site GCGAAAACTAG)	0
GCAAAAACATGGACCGGTTTTCCCGGTAATCCGTATTTGCT (site GCTAAAACTAG)	0

Sequence	recombinant UMI read abundance (log10)
GCAAACCCATGGACCGGTTTTCCCGGTAATCCGTATTTGAT (site GCAAACCCTAT)	1.75
GCAAACGCATGGACCGGTTTTCCCGGTAATCCGTATTTGGT (site GCAAACGCTAC)	1.71
GCAAATTCATGGACCGGTTTTCCCGGTAATCCGTATTTGTA (site GCAAATTCTTA)	1.32
GCAACTGCATGGACCGGTTTTCCCGGTAATCCGTATTTGCC (site GCAACTGCTGG)	0
GCAACTGCATGGACCGGTTTTCCCGGTAATCCGTATTTGCC (site GCCACTGCTGG)	0
GCAACTGCATGGACCGGTTTTCCCGGTAATCCGTATTTGCC (site GCGACTGCTGG)	0
GCAACTGCATGGACCGGTTTTCCCGGTAATCCGTATTTGCC (site GCTACTGCTGG)	0
GCAATACCATGGACCGGTTTTCCCGGTAATCCGTATTTGTG (site GCAATACCTCA)	0.00804
GCAATTACATGGACCGGTTTTCCCGGTAATCCGTATTTGTC (site GCAATTACTGA)	0.939
GCACACCCATGGACCGGTTTTCCCGGTAATCCGTATTTGTT (site GCACACCCTAA)	0.67
GCACATCCATGGACCGGTTTTCCCGGTAATCCGTATTTGAC (site ACACATCCTGT)	2.23
GCACATCCATGGACCGGTTTTCCCGGTAATCCGTATTTGAC (site CCACATCCTGT)	0
GCACATCCATGGACCGGTTTTCCCGGTAATCCGTATTTGAC (site GCACATCCTGT)	0
GCACATCCATGGACCGGTTTTCCCGGTAATCCGTATTTGAC (site TCACATCCTGT)	0.745
GCACTTTCATGGACCGGTTTTCCCGGTAATCCGTATTTGGG (site GCACTTTCTCC)	2.31
GCAGACTCATGGACCGGTTTTCCCGGTAATCCGTATTTGTT (site GCAGACTCTAA)	3.03
GCAGATCCATGGACCGGTTTTCCCGGTAATCCGTATTTGCT (site GCAGATCCTAG)	0
GCAGATTCATGGACCGGTTTTCCCGGTAATCCGTATTTGTT (site GAAGATTCTAA)	0
GCAGATTCATGGACCGGTTTTCCCGGTAATCCGTATTTGTT (site GCAGATTCTAA)	2.97
GCAGATTCATGGACCGGTTTTCCCGGTAATCCGTATTTGTT (site GGAGATTCTAA)	0
GCAGATTCATGGACCGGTTTTCCCGGTAATCCGTATTTGTT (site GTAGATTCTAA)	0.308
GCAGGCCCATGGACCGGTTTTCCCGGTAATCCGTATTTGCT (site GCAGGCCCTAG)	0.921
GCAGGCGCATGGACCGGTTTTCCCGGTAATCCGTATTTGGT (site GCAGGCGCTAC)	0.864
GCAGGTGCATGGACCGGTTTTCCCGGTAATCCGTATTTGAT (site ACAGGTGCTAT)	2.52
GCAGGTGCATGGACCGGTTTTCCCGGTAATCCGTATTTGAT (site CCAGGTGCTAT)	1.91

Source: the supplement of paper PMC11208160
